# Molecular target: T1, Human immunodeficiency virus type 1 protease (Human immunodeficiency virus 1, UniProt Q72874)
# Test: In vitro inhibition of HIV-1 protease
row,IC50,Structure (SMILES)
1,212 nM,CC(C)(C)OC(=O)N[C@@H](Cc1ccccc1)[C@@H](O)C[C@@H](Cc1ccccc1)C(=O)N[C@@]1(C)c2ccccc2C[C@H]1O
2,30000 nM,CC(C)(C)OC(=O)N[C@@H](Cc1ccccc1)[C@@H](O)C[C@@H](Cc1ccccc1)C(=O)NCC1CCCCC1
3,66.3 nM,COC(=O)[C@@H]1Cc2ccccc2[C@@H]1NC(=O)[C@H](Cc1ccccc1)C[C@H](O)[C@H](Cc1ccccc1)NC(=O)OC(C)(C)C
4,122 nM,CC(C)(C)OC(=O)N[C@@H](Cc1ccccc1)[C@@H](O)C[C@@H](Cc1ccccc1)C(=O)N[C@H]1CCCC[C@H]1O
5,0.25 nM,CC(C)(C)OC(=O)N[C@@H](Cc1ccccc1)[C@@H](O)C[C@@H](CSc1ccccc1)C(=O)N[C@H]1c2ccccc2C[C@H]1O
6,7.7 nM,CC(C)(C)OC(=O)N[C@@H](Cc1ccccc1)[C@@H](O)C[C@@](C)(Cc1ccccc1)C(=O)N[C@H]1c2ccccc2C[C@H]1O
7,40.5 nM,CC(C)(C)OC(=O)N[C@@H](Cc1ccccc1)[C@@H](O)C[C@@H](Cc1ccccc1)C(=O)N[C@@H]1c2ccccc2OC[C@@H]1O
8,2930 nM,CC(C)(C)OC(=O)N[C@@H](Cc1ccccc1)[C@@H](O)CCC(=O)N[C@H]1c2ccccc2C[C@H]1O
9,0.18 nM,CC(C)(C)OC(=O)N[C@@H](Cc1ccccc1)[C@@H](O)C[C@@H](Cc1ccccc1)C(=O)N[C@H]1c2ccccc2OC[C@H]1O
10,161 nM,CC(C)[C@H](NC(=O)[C@H](Cc1ccccc1)C[C@H](O)[C@H](Cc1ccccc1)NC(=O)OC(C)(C)C)C(=O)O
11,38.6 nM,CC(C)(C)OC(=O)N[C@@H](Cc1ccccc1)[C@@H](O)C[C@@H](Cc1ccccc1)C(=O)N[C@H](CO)c1ccccc1
12,690 nM,CC(C)(C)OC(=O)N[C@@H](Cc1ccccc1)[C@@H](O)C[C@@H](Cc1ccccc1)C(=O)N[C@H](CO)Cc1ccccc1
13,5.42 nM,CC(C)(C)OC(=O)N[C@@H](Cc1ccccc1)[C@@H](O)C[C@@H](CC(=O)c1ccccc1)C(=O)N[C@H]1c2ccccc2C[C@H]1O
14,114 nM,CC(C)(C)OC(=O)N[C@@H](Cc1ccccc1)[C@@H](O)C[C@@H](Cc1ccccc1)C(=O)NCc1ccccc1
15,0.17 nM,CC(C)(C)OC(=O)N[C@@H](Cc1ccccc1)[C@@H](O)C[C@@H](Cc1ccc(C(C)(C)C)cc1)C(=O)N[C@H]1c2ccccc2C[C@H]1O
16,27.5 nM,C=CC[C@H](C[C@H](O)[C@H](Cc1ccccc1)NC(=O)OC(C)(C)C)C(=O)N[C@H]1c2ccccc2C[C@H]1O
17,0.19 nM,CC(C)(C)OC(=O)N[C@@H](Cc1ccccc1)[C@@H](O)C[C@@H](CCCc1ccccc1)C(=O)N[C@H]1c2ccccc2[C@@H](O)[C@H]1O
18,146 nM,C[C@@H](NC(=O)[C@H](Cc1ccccc1)C[C@H](O)[C@H](Cc1ccccc1)NC(=O)OC(C)(C)C)C1CCCCC1
19,34.2 nM,CC(C)(C)OC(=O)N[C@@H](Cc1ccccc1)[C@@H](O)C[C@@H](Cc1ccccc1)C(=O)N[C@@H]1CCc2ccccc21
20,0.7 nM,CC(C)(C)OC(=O)N[C@@H](Cc1ccccc1)[C@@H](O)C[C@@H](Cc1ccccc1)C(=O)N[C@H]1c2ccccc2CC[C@H]1O
21,0.53 nM,CC(C)(C)OC(=O)N[C@@H](Cc1ccccc1)[C@@H](O)C[C@@H](Cc1ccncc1)C(=O)N[C@H]1c2ccccc2C[C@H]1O
22,9.53 nM,CC(C)(C)OC(=O)N[C@@H](Cc1ccccc1)[C@@H](O)C[C@@H](Cc1ccccc1)C(=O)N[C@H]1C=CC[C@H]1O

row,Structure (SMILES),IC50
1,CC(C)(C)OC(=O)N[C@@H](Cc1ccccc1)[C@@H](O)C[C@@H](Cc1ccccc1)C(=O)N[C@H]1c2ccccc2C[C@H]1O,0.25 nM

# Molecular target: T1, Human immunodeficiency virus type 1 protease
# Test: Inhibition of HIV-1 protease was determined in vitro
row,IC50,Structure (SMILES)
1,4680 nM,CC(C)(C)OC(=O)CN(Cc1ccccc1)C[C@@H](O)[C@H](Cc1ccccc1)NC(=O)OC(C)(C)C
2,52.8 nM,CC(C)[C@H](NC(=O)[C@H](Cc1ccccc1)C[C@H](O)CN1C[C@H]2CCCC[C@H]2C[C@H]1C(=O)NC(C)(C)C)C(=O)Nc1ccc2ccccc2n1
3,589 nM,CC(C)(C)OC(=O)N[C@@H](Cc1ccc(O)cc1)[C@@H](O)[C@@H]1CCC[C@H]1C(=O)NCc1ccccc1
4,0.692 nM,O=C(N[C@H]1c2ccccc2C[C@H]1O)[C@H](Cc1ccccc1)CC(O)C[C@@H](Cc1ccccc1)C(=O)N[C@H]1c2ccccc2C[C@H]1O
5,3020 nM,CC(C)(C)NC(=O)[C@@H]1C[C@@H]2CCCC[C@@H]2CN1CC(O)[C@H](Cc1ccccc1)NC(=O)OC(C)(C)C (stereo not given in full)
6,1270 nM,CC(C)(C)OC(=O)N[C@@H](Cc1ccccc1)[C@@H](O)C[C@]1(Cc2ccccc2)CCCN([C@H]2c3ccccc3C[C@H]2O)C1=O
7,568 nM,CC(C)(C)OC(=O)N[C@@H](Cc1ccccc1)[C@@H](O)CC(=O)NC1c2ccccc2C[C@H]1O (stereo not given in full)
8,1.29 nM,CC(C)(C)OC(=O)N[C@@H](Cc1ccccc1)[C@@H](O)/C=C(/Cc1ccccc1)C(=O)N[C@H]1c2ccccc2C[C@H]1O
9,7.59 nM,CC(C)(C)NC(=O)[C@@H]1C[C@@H]2CCCC[C@@H]2CN1C[C@@H](O)C[C@@H](Cc1ccccc1)C(=O)N[C@H]1c2ccccc2C[C@H]1O
10,6760 nM,CC(C)(C)NC(=O)[C@@H]1C[C@@H]2CCCC[C@@H]2CN1CC(O)CN1C[C@H]2CCCC[C@H]2C[C@H]1C(=O)NC(C)(C)C
11,229 nM,CC(C)(C)OC(=O)N[C@@H](Cc1ccccc1)[C@H](O)CN[C@@H](Cc1ccccc1)C(=O)N[C@H]1c2ccccc2C[C@H]1O
12,1370 nM,CC(C)(C)OC(=O)N[C@@H](Cc1ccccc1)[C@@H](O)[C@H](O)[C@H](Cc1ccccc1)NC(=O)OC(C)(C)C
